Values of other authors as cited in US20050154022A1, “4-aryl piperidines” (H. Lundbeck A/S, priority 2004, published 2005).

Columns and labels:
Settings in all cases: see Borowsky et al. (2002)
guinea pig = test system: guinea pig
rat [1] = test system: rat
rat [2] = test system: rat; remark: listed apart in the source

For `COCC1=C(C(=O)OC)[C@H](c2ccc(F)c(F)c2)N(C(=O)NCCCN2CCC(c3cccc(NC(C)=O)c3)CC2)C(=O)N1` [SNAP-7941], the “effect in guinea pig maternal-separation vocalization test (animal model of depression/anxiety)” value (guinea pig) is listed as “effects similar to clinically used antidepressants and anxiolytics”, the “effect in rat social interaction test (animal model of depression/anxiety)” value (rat [1]) is listed as “effects similar to clinically used antidepressants and anxiolytics” and the “effect in rat forced-swim test (animal model of depression/anxiety)” value (rat [2]) is listed as “effects similar to clinically used antidepressants and anxiolytics”.
